# Test results reported in patent publication US9492470B2, “Use of HMGA-targeted phosphorothioate DNA aptamers to suppress carcinogenic activity and increase sensitivity to chemotherapy agents in human cancer cells” (MIAMI UNIVERSITY, priority 2012, dated 2016).
# Where two headings read alike, the source gives them in different places. In the oligonucleotide strings, read from the 5' end, every base follows the letter of its sugar. An asterisk marks phosphorothioate; unmarked linkages are phosphodiester. Other units and linkages are bracketed, terminal groups are in braces. A string of capitals states the bases alone. d = 2'-deoxy (DNA)
# Experiments:
# [1] = tested on: HMGA1 expression levels in AsPC-1 cells; assay: Western blot of HMGA1 expression levels in AsPC-1 nuclear extracts; format: cell-based, Human; conditions: AsPC-1, 0.5 μg sDNA in six well plates, 48 hours
# Protocol: Cytoplasmic and nuclear protein extracts were prepared from pancreatic cancer cells using NE-PER extraction kit (Thermo Scientific, Rockford, Ill.). Protein concentrations were determined using a bicinchoninic acid assay with bovine serum albumin as a standard. Nuclear proteins that contained 25 or 15 μg total protein were separated by SDS-PAGE with a 4%-20% Criterion gradient gel (Bio-Rad Laboratories, Inc., Hercules, Calif.). The proteins were transferred to immuno-blot PVDF membrane (0.2 μm) (Bio-Rad Laboratories, Inc., Hercules, Calif.) and blocked in 5% dry milk in PBS supplemented with 0.2% Tween 20 (PBST). The PVDF membranes were then probed with 1:1000 dilution of rabbit anti-HMGA1 antibody (Santa Cruz Biotechnology Inc, Santa Cruz, Calif.) and 1:100 dilution of rabbit anti-HMGA2 antibody (Abcam plc, Cambridge, Mass.), in 3% BSA in PBST at 4° C. overnight. After three washes with PBST, the membrane was blotted with secondary antibody, ant-rabbit IgG-HRP (cell signaling) 1:5000 dilution in 1% dry milk in PBST at room temperature for 1 hour. An enhanced chemiluminescence detection (ECL, GE Healthcare Life Sciences, Piscataway, N.J.) system was used to detect target proteins. To ensure equal loading of the proteins between groups, membranes were re-probed with anti-TATA binding protein antibody (Abcam plc, Cambridge, Mass.). […] The control was nuclear extract from untreated cells. Triplicates of each sample were run on the gel and analyzed with the Alpha Imager. The relative HMGA1 densities were obtained by dividing HMGA 1 density by TBP density. […] TATA binding protein (TBP) was used as a loading control. […] HMGA1 expression levels were examined after transfection with CG-sDNA or AT-sDNA to determine if the transfection procedure affected HMGA1 expression levels. The AT-sDNA used for transfection contained an 18 adenine/thymine stretch enabling HMGA1 to bind the DNA with all three AT-hooks. As a negative control, a non-HMGA1-targeted sDNA containing an equal length of DNA but with no AT-stretches, i.e. CG-sDNA, was used. […]
# AsPC-1 cells [2] = assay: Cell growth with gemcitabine treatment after sDNA transfection, AsPC-1; format: cell-based, Human; conditions: AsPC-1, 0.25 ug sDNA, 96 hours
# AsPC-1 cells [3] = conditions: for cell death: 96 h, compared to non-transfected cells; for cells dead compared to UT: versus untransfected (UT) cells; for Fold change in numbers of viable cells between TC and sDNA transfected cells (in parentheses) / Fold change in numbers of viable cells between UT and transfected cells: 96 h after transfection
# Protocol: AsPC-1 cells were grown in Roswell Park Memorial Institute medium supplemented with 10% FBS, and 1% penicillin-streptomycin.
# Transfections using sDNA at concentrations of 0.1 and 0.25 μg per well were conducted with 5×10^4 and 1×10^5 Miapaca-2 and AsPC-1 cells, respectively, in 24-well plates and all data were collected in quadruplicate. Miapaca-2 and AsPC-1 cells were transfected with sDNA using Lipofectamine 2000 (Invitrogen,™ Life Technologies Corporation, Carlsbad, Calif.) according to the manufacturer's protocol.
# Briefly, AsPC-1 cells grown in 10% FBS containing RPIM medium were trypsinized using a trypsin-EDTA solution commercially available from the Sigma-Aldrich, and used to seed fresh media in a 24-well plate with 10^5 cells per well.
# After 48 hours, the cells were transfected with the selected sDNA using Lipofectamine 2000 (Invitrogen,™ Life Technologies Corporation, Carlsbad, Calif.) according to the manufacturer's protocol. […] The cells were then fixed with 4% paraformaldehyde in PBS for 20 minutes and stained in 0.1% crystal violet stain (Sigma-Aldrich) for 30 minutes. The cells were washed under running tap water, air dried, and extracted with 0.2% Triton™ X-100 for 30 minutes. […] The absorbance of the Triton X-100 was measured at 570 nm using a HTS microplate reader. All results were analyzed for statistical significance using a student's unpaired t-test.
# AsPC-1 cells [4] = assay: Cell growth with gemcitabine treatment after sDNA transfection, AsPC-1; format: cell-based, Human; conditions: AsPC-1, 0.1 ug sDNA, 96 hours
# Protocol: (§1) Cells were fixed after 96 hours and numbers of viable cells counted by measuring the absorbance at 570 nm.
# (§2) Cells were transfected with 0.1 μg of TC-sDNA, Mix-sDNA, CG-sDNA, and AT-sDNA.
# Miapaca-2 cells [5] = assay: Cell growth with gemcitabine treatment after sDNA transfection, Miapaca-2; format: cell-based, Human; conditions: 96 hours; for Fold change in numbers of viable cells normalized relative to TC: Miapaca-2, 0.1 ug sDNA
# Protocol: as §1, §2
# Miapaca-2 cells [6] = assay: Cell viability (crystal violet) after sDNA transfection, Miapaca-2; format: cell-based, Human; conditions: for cells dead compared to UT: versus untransfected (UT) cells; for Fold change in numbers of viable cells between TC and sDNA transfected cells (in parentheses) / Fold change in numbers of viable cells between UT and transfected cells: 96 h after transfection
# Protocol: The absorbance was measured at 570 nm in quadruplicate. All data from control cells were combined and averaged.
# Miapaca-2 cells [7] = assay: Cell growth with gemcitabine treatment after sDNA transfection, Miapaca-2; format: cell-based, Human; conditions: 96 hours
substance,measurement,setting,value
"CG-sDNA: CG-rich phosphorothioate DNA (SEQ ID NO: 12), negative control with no AT-stretches (DNA dC*dC*dC*dC*dG*dG*dG*dC*dC*dC*dC*dG*dG*dC*dC*dG*dG*dG*dC*dG*dC*dC*dG*dC)",change in HMGA1 expression levels after sDNA transfection,[1],no changes
same,Fold change in numbers of viable cells normalized relative to TC,AsPC-1 cells [2]; Gemcitabine 0 nM,−1.10 fold
same,Fold change in numbers of viable cells normalized relative to TC,AsPC-1 cells [2]; Gemcitabine 1 nM,−1.10 fold
same,Fold change in numbers of viable cells normalized relative to TC,AsPC-1 cells [2]; Gemcitabine 10 nM,−1.21 fold
same,Fold change in numbers of viable cells normalized relative to TC,AsPC-1 cells [2]; Gemcitabine 30 nM,−1.69 fold
same,Fold change in numbers of viable cells normalized relative to TC,AsPC-1 cells [2]; Gemcitabine 100 nM,−1.36 fold
same,Fold change in numbers of viable cells normalized relative to TC,AsPC-1 cells [2]; Gemcitabine 1000 nM,−2.16 fold
same,cell death,"AsPC-1 cells [3]; AsPC-1, 0.1 μg sDNA per well",12%
same,cells dead compared to UT,"AsPC-1 cells [3]; AsPC-1, 0.1 ug sDNA, 48 hrs",33.8%
same,Fold change in numbers of viable cells between TC and sDNA transfected cells (in parentheses),"AsPC-1 cells [3]; AsPC-1, 0.1 μg sDNA",(−1.11) fold
same,Fold change in numbers of viable cells between UT and transfected cells,"AsPC-1 cells [3]; AsPC-1, 0.1 μg sDNA",−1.20 fold
same,cells dead compared to TC,"AsPC-1 cells [3]; AsPC-1, 0.1 μg sDNA, 96 hrs, versus transfection control (TC) cells",9.7%
same,cells dead compared to UT,"AsPC-1 cells [3]; AsPC-1, 0.1 ug sDNA, 96 hrs",14.3%
same,difference in cell viability between TC cells and sDNA transfected cells,"AsPC-1 cells [3]; AsPC-1, 0.1 ug sDNA, both 48 and 96 hours",no significant differences
same,cell death,"AsPC-1 cells [3]; AsPC-1, 0.25 μg sDNA per well",16%
same,Fold change in numbers of viable cells between TC and sDNA transfected cells (in parentheses),"AsPC-1 cells [3]; AsPC-1, 0.25 μg sDNA",(−1.10) fold
same,Fold change in numbers of viable cells between UT and transfected cells,"AsPC-1 cells [3]; AsPC-1, 0.25 μg sDNA",−1.19 fold
same,cell death compared to TC,"AsPC-1 cells [3]; AsPC-1, 0.25 μg sDNA, 96 hours, versus TC cells",9.0%
same,cell death,"AsPC-1 cells [3]; AsPC-1, 1.0 μg sDNA per well",60%
same,cells dead compared to TC,"AsPC-1 cells [3]; AsPC-1, 1.0 μg sDNA, 96 hours, versus TC cells",56.4%
same,Fold change in numbers of viable cells normalized relative to TC,AsPC-1 cells [4]; Gemcitabine 0 nM,−1.11 fold
same,Fold change in numbers of viable cells normalized relative to TC,AsPC-1 cells [4]; Gemcitabine 1 nM,−1.09 fold
same,Fold change in numbers of viable cells normalized relative to TC,AsPC-1 cells [4]; Gemcitabine 10 nM,−1.18 fold
same,Fold change in numbers of viable cells normalized relative to TC,AsPC-1 cells [4]; Gemcitabine 30 nM,−1.34 fold
same,Fold change in numbers of viable cells normalized relative to TC,AsPC-1 cells [4]; Gemcitabine 100 nM,−1.52 fold
same,Fold change in numbers of viable cells normalized relative to TC,AsPC-1 cells [4]; Gemcitabine 1000 nM,−1.67 fold
same,cells dead / change in cell viability,"Miapaca-2 cells [5]; Miapaca-2, 0.1 μg sDNA, 1 nM gemcitabine",no significant change
same,cells surviving,"Miapaca-2 cells [5]; Miapaca-2, 0.1 μg sDNA, 10 nM gemcitabine, normalized to 0 nM gemcitabine",83.9%
same,Fold change in numbers of viable cells normalized relative to TC,Miapaca-2 cells [5]; Gemcitabine 0 nM,1.09 fold
same,Fold change in numbers of viable cells normalized relative to TC,Miapaca-2 cells [5]; Gemcitabine 10 nM,−1.09 fold
same,Fold change in numbers of viable cells normalized relative to TC,Miapaca-2 cells [5]; Gemcitabine 30 nM,−3.29 fold
same,Fold change in numbers of viable cells normalized relative to TC,Miapaca-2 cells [5]; Gemcitabine 100 nM,−4.06 fold
same,Fold change in numbers of viable cells normalized relative to TC,Miapaca-2 cells [5]; Gemcitabine 1000 nM,−4.24 fold
same,cells dead compared to UT,"Miapaca-2 cells [6]; Miapaca-2, 0.1 ug sDNA, 48 hrs",36.3%
same,Fold change in numbers of viable cells between TC and sDNA transfected cells (in parentheses),"Miapaca-2 cells [6]; Miapaca-2, 0.1 μg sDNA",(1.09) fold
same,Fold change in numbers of viable cells between UT and transfected cells,"Miapaca-2 cells [6]; Miapaca-2, 0.1 μg sDNA",−1.43 fold
same,cells dead compared to UT,"Miapaca-2 cells [6]; Miapaca-2, 0.1 ug sDNA, 96 hrs",32.0%
same,difference in cell viability between TC cells and sDNA transfected cells,"Miapaca-2 cells [6]; Miapaca-2, 0.1 ug sDNA, both 48 and 96 hours",no significant differences
same,Fold change in numbers of viable cells between TC and sDNA transfected cells (in parentheses),"Miapaca-2 cells [6]; Miapaca-2, 0.25 μg sDNA",(−1.30) fold
same,Fold change in numbers of viable cells between UT and transfected cells,"Miapaca-2 cells [6]; Miapaca-2, 0.25 μg sDNA",−2.15 fold
same,Fold change in numbers of viable cells normalized relative to TC,"Miapaca-2 cells [7]; Miapaca-2, 0.1 ug sDNA, Gemcitabine 1 nM",1.12 fold
same,Fold change in numbers of viable cells normalized relative to TC,"Miapaca-2 cells [7]; Miapaca-2, 0.25 ug sDNA, Gemcitabine 0 nM",−1.30 fold
same,Fold change in numbers of viable cells normalized relative to TC,"Miapaca-2 cells [7]; Miapaca-2, 0.25 ug sDNA, Gemcitabine 1 nM",−1.38 fold
same,Fold change in numbers of viable cells normalized relative to TC,"Miapaca-2 cells [7]; Miapaca-2, 0.25 ug sDNA, Gemcitabine 10 nM",−1.37 fold
same,Fold change in numbers of viable cells normalized relative to TC,"Miapaca-2 cells [7]; Miapaca-2, 0.25 ug sDNA, Gemcitabine 30 nM",−2.97 fold
same,Fold change in numbers of viable cells normalized relative to TC,"Miapaca-2 cells [7]; Miapaca-2, 0.25 ug sDNA, Gemcitabine 100 nM",−5.48 fold
same,Fold change in numbers of viable cells normalized relative to TC,"Miapaca-2 cells [7]; Miapaca-2, 0.25 ug sDNA, Gemcitabine 1000 nM",−4.11 fold
